Experiment: Tobramycin release study from CMHA-S/PEGDA films (OPA fluorescence assay)
Assay type: physicochemical
Method: Tobramycin sulfate (2 mg/film) and tobramycin free base (2 mg/film) were used for this study. As tobramycin absorbs UV weakly, OPA assay and measuring fluorescence were used to calculate cumulative release of tobramycin. Amount of release tobramycin was calculated from standard curve. The accumulated release amount of tobramycin was more than 1 mg (thus more than 50% release) over 7 days.
Drug-loaded films were placed in PBS for the antibiotic release study. The fluid was removed and assayed daily. For tobramycin, detection was performed using an O-phthaldialdehyde (OPA) reagent. OPA, in the presence of reduced sulfhydryl groups, reacts with the primary amine group in tobramycin to form fluorescent moieties. The fluorescence was measured at an excitation wavelength of 360 nm, and an emission wavelength of 460 nm. The amount of released drug was calculated using a standard solution of tobramycin. For moxifloxacin, UV absorption at 293 nm was used to measure the amount of released drug. The amount of released drug was calculated using a standard solution of moxifloxacin. This removed fluid was also used to assess the bactericidal capability of released antibiotic by the disk diffusion method on agar plates seeded with S. aureus and P. aeruginosa measuring zone of inhibition (ZOI). Similar ZOI bacterial work was also performed using the actual films by an outside lab, Analytical Resource Lab (ARL, Salt Lake City, Utah).
Each film contained 40 μg of tobramycin free base. CMHA-S films were made with 3 different crosslinking ratios: 1.5, 2.0, or 2.5. As tobramycin absorbs UV weakly, OPA assay was used to measure fluorescence using low concentrations of tobramycin. The amount of released tobramycin was calculated from a standard curve. The accumulated released amount of tobramycin was more than 20 μg (thus more than 50% release) over 7 days. The release increased continuously up to day 3 and remained unchanged for the different thiol to acrylate ratios.

NC[C@H]1O[C@H](O[C@H]2[C@H](O)[C@@H](O[C@H]3O[C@H](CO)[C@@H](O)[C@H](N)[C@H]3O)[C@H](N)C[C@@H]2N)[C@H](N)C[C@@H]1O [tobramycin]
release of tobramycin (share of load) (40 μg tobramycin free base per film, over 7 days (FIG. 5)): more than 50% | accumulated released amount of tobramycin (40 μg tobramycin free base per film, thiol to acrylate 1.5, 2.0, 2.5, over 7 days (FIG. 5)): more than 20 μg | accumulated release amount of tobramycin (2 mg/film tobramycin sulfate or free base, thiol to acrylate 1.5 and 2.0, over 7 days (FIG. 3)): more than 1 mg | release of tobramycin (share of load) (2 mg/film, over 7 days (FIG. 3)): more than 50%
